The values that follow come from publication PMC10327353 (Breast Cancer Research : BCR, 2023).

Data set [1] has as its system A431 cells. Description: Cell proliferation assay (CellTiter-Glo), A431. It counts as cell-based. Particulars: Homo sapiens, A-431; A431, 72 hrs. The method, then:
(§1) BT474C1-Luci Mono1 cells were seeded in 384-well plates at 1500 cells/well in DMEM medium containing 10% FBS and 1 mM Oxaloacetic acid (OAA). A431 cells were seeded in 384-well plates at 1,000 cells/well in DMEM medium containing 10% FBS. After overnight incubation, cells were treated with compounds at various concentrations for 3 days. Then cell viability was measured using a CellTiter-Glo Luminescent Cell Viability Assay from Promega Corp. according to the manufacturer's instructions.

Data set [2] in a line: In vivo CNS-PK study in monkey. The settings on record: female, cynomolgus monkey, CSF (relative to unbound plasma/blood), single PO dose of DZD1516 30 mg/kg. The method, then: (§2) The ability of DZD1516 and DZ2678 to cross the BBB in female Wistar Han rat and female Cynomolgus monkey was studied by assessing the free brain-to-plasma ratio (Kp,uu,brain) and CSF-to-free plasma ratio (Kp,uu,CSF). Total brain-to-blood ratio (Kp,brain) and CSF-to-blood ratio (Kp,CSF) were measured from six time points after oral administration. Free fractions of DZD1516 and DZ2678 in the biological matrix were determined by in vitro plasma and brain binding assay.
(§3) Kp,brain= AUCbrain/AUCblood. Kp,CSF was the average of the CSF-to-blood ratios at the evaluated time points. Kp,uu,brain= Kp,brain× fu,brain/fu,blood; Kpuu,CSF= Kp,CSF/fu,blood.
Three female Cynomolgus monkeys were administered with a single PO dose of DZD1516 at 30 mg/kg. The PO dosing formulation was a suspension in 0.5% HPMC E5 in water (w/v). Plasma and CSF samples were collected at 0.5, 1, 2, 4, 8, and 24 hrs post-dose. The concentrations of DZD1516 and metabolite DZ2678 in monkey plasma and CSF were determined by the validated LC-MS/MS method.

The test system of data set [3] is 121 recombinant human kinases. The data set is described as follows: Kinome selectivity profile, 121-kinase panel. The data set is classed as biochemical. Particulars: 1 µM DZD1516, Km ATP. The method, then:
In vitro profiling of the 121-recombinant kinase panel was performed at Eurofins UK Ltd (Dundee, UK). In brief, recombinant kinases were incubated within an appropriate buffer containing peptide substrate and radiolabelled γ-^33P-ATP together with the presence or absence of the required compound concentration. The reaction was initiated by adding ATP/Mg^2+ mix. After incubation for 40 minutes at room temperature, the reaction was stopped by adding 3% phosphoric acid solution. A portion of the reaction mix was spotted onto P30 filtermat to trap peptide and washed three times for 5 minutes with phosphoric acid to remove non-specific γ-^33P-ATP. The substrate phosphorylation was then measured by scintillation counting, which determined the level of kinase activity inhibition compared to control reactions. Percentage inhibition data for each kinase was mapped to the kinome tree (www.kinhub.org).

The nature of data set [4]: DMPK modeling prediction of human half-life.
Data set [5] can be described thus: In vivo CNS-PK study in rat. The settings on record: female, Wistar Han, brain and CSF (relative to unbound plasma/blood), single PO dose of DZD1516 30 mg/kg. How it is done: as §2, §3
In total, twenty-one female Wistar Han rats were administered with a single PO dose of DZD1516 at 30 mg/kg. The PO dosing formulation was a suspension in 0.5% HPMC E5 in water (w/v). Plasma, brain, and CSF samples were collected at 0.5, 1, 2, 4, 8, 24, and 30 hrs post-dose. The concentrations of DZD1516 and metabolite DZ2678 in plasma, brain, and CSF samples from the rats, as well as in plasma and CSF samples from the monkeys, were determined by the validated LC-MS/MS method.

Data set [6] has as its system CYP P450s. Description: CYP P450 inhibition and induction. The data set is classed as in vitro ADME. Particulars: in vitro.
In data set [7] the test system is BT474C1 cells. The data set is described as follows: Cell proliferation assay (CellTiter-Glo), BT474C1. The data set is classed as cell-based, human. The settings on record: Homo sapiens; BT474C1, 72 hrs. How it is done:
as §1
On the technique in general: In ATP-based viability assays light output follows the ATP content of the culture.

Data set [8] relates to P-gp-BCRP. The data set is described as follows: P-gp-BCRP efflux ratio, cellular transport assay. It counts as in vitro ADME, human. How it is done: A discussion of the structure–activity relationship (SAR) cumulated in the design of DZD1516 (Fig. 1) is as follows. The HER2 inhibitory potency screening for SAR development was performed using HER2 and EGFR enzymatic assays. The cellular activity was evaluated in HER2+ cell line BT474C1 by measuring pHER2 and antiproliferation activities. Cellular transport assays measuring the permeability and efflux ratio of compounds in cells expressing human P-gp (MDR1) and BCRP were used to provide essential information for assessing their BBB penetration potential.

The nature of data set [9]: Human hepatocyte intrinsic clearance. It counts as in vitro ADME. The settings on record: human hepatocytes; read-out: Human Heps Clint.

The term GI50 denotes the concentration that inhibits growth by half. Broadly, the efflux ratio is the permeability from basolateral to apical divided by that in the opposite direction, in the common usage.

With `COc1cc(O[C@H]2CCN(C)CC2(F)F)c2c(Nc3ccc(Oc4ccn5ncnc5c4)c(C)c3)ncnc2c1` [DZD1516], the GI50 is 8.87 µM in [1] and 20 nM in data set [7]. Besides, the Kp uu in [2] was 4.1; in data set [5], 0.57 to 0.87. In addition, the “number of kinases inhibited > 50%” value in [3] is recorded as 12. Also, the predicted human half-life result in [4] was “about 8 h”. The “CYP P450s inhibitor and inducer” value in data set [6] is “not a CYP P450s inhibitor and inducer”. Further, the efflux ratio at 1 µM in [8] (human, not told, 1 µM) came to 1.8. Also, the “active efflux via P-gp and BCRP” value in data set [8] (in vitro) is “do not undergo active efflux via P-gp and BCRP in vitro”. The hepatocyte CLint in data set [9] is 12 µL/min/1e6 cells.
